Measurements: patent US6900308B2, “α-modified nucleoside triphosphates” (ISIS Pharmaceuticals, Inc., priority 2001, dated 2005)

How the values were obtained:
wild-type HIV RT = wild-type HIV RT (Human immunodeficiency virus type 1 group M subtype B, UniProt P04585); assay: Inhibition of HIV-RT activity (RNA template t500 annealed to DNA primer pD500, [alpha-33P]-dATP incorporation); format: biochemical; conditions: for inhibition at 10 µM: read-out: % I (10 μM), Inhibition of HIV-RT; for inhibition at 100 µM: read-out: % I (100 μM), Inhibition of HIV-RT
HCV NS5B RNA polymerase = target: T1, HCV NS5B RNA polymerase (Hepatitis C virus genotype 1b, UniProt P26663); assay: Inhibition of HCV NS5B RNA-dependent RNA polymerase on heteromeric RNA template t500 (filter-binding, radiolabelled NTP); format: biochemical; conditions: test concentration not given (compounds tested up to 100 μM); for % I (ATP), Percent Inhibition of HCV NS5B RNA polymerase: [alpha-32P]-ATP label; for % I (GTP), Percent Inhibition of HCV NS5B RNA polymerase: [alpha-32P]-GTP label
T1 construct: purified hepatitis C NS5B (form with 21 amino acids C-terminally truncated)
Experimental: This assay can be used to measure the ability of the nucleoside triphosphates of the present invention to inhibit the enzymatic activity of the RNA-dependent RNA polymerase (NS5B) of the hepatitis C virus (HCV) on a heteromeric RNA template.
The following describes assay buffer conditions: (50 μl-total/reaction) • 20 mM Tris, pH 7.5 • 50 μM EDTA • 5 mM DTT • 2 mM MgCl2 • 80 mM KCl • 0.4 U/μl RNAsin (Promega, stock is 40 units/μl) • 0.75 μg t500 (a 500 nt RNA made using T7 runoff transcription with a sequence from the NS2/3 region of the hepatitis C genome) • 1.6 μg purified hepatitis C NS5B (form with 21 amino acids C-terminally truncated) • 1 μM A, C, U, GTP (nucleoside triphosphate mix) • [alpha-^32P]-GTP or [alpha-^32P]-ATP The compounds were tested at various concentrations up to 100 μM final concentration.
An appropriate volume of reaction buffer was made including enzyme and template t500. Nucleoside derivatives of the present invention were pipetted into the wells of a 96-well plate. A mixture of nucleoside triphosphates (NTP's), including the radiolabeled GTP, was made and pipetted into the wells of a 96-well plate. The reaction was initiated by addition of the enzyme-template reaction solution and allowed to proceed at room temperature for 1-2 hours.
The reaction was quenched by addition of 20 μl 0.5 M EDTA, pH 8.0. Blank reactions in which the quench solution is added to the NTPs prior to the addition of the reaction buffer were included.
50 μL of the quenched reaction was spotted onto DE81 filter disks (Whatman) and allowed to dry for 30 minutes. The filters were washed with 0.3 M ammonium formate, pH 8 (150 mL/wash until the cpm in 1 mL wash is less than 100, usually 6 washes). The filters were counted in 5-mL scintillation fluid in a scintillation counter.
The percentage of inhibition is calculated according to the following equation: %Inhibition={1−(cpm in test reaction−cpm in blank)/(cpm in control reaction−cpm in blank)}×100.

T1 sequence (P26663 2420-2989): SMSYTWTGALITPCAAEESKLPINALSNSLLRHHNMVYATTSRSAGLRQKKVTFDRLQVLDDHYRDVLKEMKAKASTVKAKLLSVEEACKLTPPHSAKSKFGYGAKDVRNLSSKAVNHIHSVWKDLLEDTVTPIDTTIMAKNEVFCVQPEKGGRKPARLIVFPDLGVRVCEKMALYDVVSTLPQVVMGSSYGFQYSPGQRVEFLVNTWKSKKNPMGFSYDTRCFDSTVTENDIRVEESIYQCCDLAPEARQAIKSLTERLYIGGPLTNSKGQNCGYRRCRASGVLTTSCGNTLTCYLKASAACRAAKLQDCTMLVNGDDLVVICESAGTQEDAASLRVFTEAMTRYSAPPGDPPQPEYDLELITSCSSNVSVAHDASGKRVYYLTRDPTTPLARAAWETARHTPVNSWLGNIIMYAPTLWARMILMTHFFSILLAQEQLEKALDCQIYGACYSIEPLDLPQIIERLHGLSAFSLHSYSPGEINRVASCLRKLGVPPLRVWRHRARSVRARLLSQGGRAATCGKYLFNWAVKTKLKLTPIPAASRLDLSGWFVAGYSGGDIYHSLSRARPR

Compound	inhibition at 10 µM (wild-type HIV RT)	inhibition at 100 µM (wild-type HIV RT)	% I (ATP), Percent Inhibition of HCV NS5B RNA polymerase (HCV NS5B RNA polymerase)	% I (GTP), Percent Inhibition of HCV NS5B RNA polymerase (HCV NS5B RNA polymerase)
COc1cc(CN)cc(OC)c1 [compound 10]	-6.41%	-11.9%	–	–
NCc1ccc(-c2ccccc2)cc1 [compound 14]	-2.25%	-12.9%	–	–
2′-Deoxythymidine-5′-(α-P-(amino triphosphate) [compound 17 of Table 2]	–	–	0.1%	−6%
NCC1COCCOCCOCCOCCO1 (stereo not shown) [compound 11]	5.37%	-17.2%	–	–
2′-O-Methyl guanosine-5′-(α-P-(N-butyl)triphosphate) [compound 23 of Table 2]	–	–	90%	91%
